Assay results published in US8073630B2, “Pharacogenetic method for prediction of the efficacy of methotrexate monotherapy in recent-onset arthritis” (Exagen Diagnostics, Inc., priority 2006, dated 2011).

Assays:
RA patients = assay: Replication cohort of RA patients on MTX monotherapy (BeSt and UMCN), response at 6 months; format: in vivo, human; settings: replication group n=38 (n=17 responders); average MTX dosage 19 mg weekly (range 5-25 mg weekly)
Protocol: Thirty-eight patients were recruited to replicate the genetic model. The validation cohort data were collected after development of the predictive model, but the investigators were blinded to either the clinical parameters or the genotyping results for the replication group. Fourteen patients were available from the BeSt study; they were treated with initial MTX monotherapy, but DNA samples were obtained after the clinical pharmacogenetic model was developed. Twenty-four patients were available from the RA cohort of the rheumatology department at the University Medical Center Nijmegen (UMCN), consisting of 553 patients (5, 51). Patients were eligible for the replication cohort if they fulfilled the ACR 1987 criteria for RA, started with MTX monotherapy, had not been treated previously with DMARDs other than antimalarial agents, and had disease duration of less than 2 years. In addition, clinical data comprising the prediction model and DNA samples had to be available. In the UMCN cohort, 352 patients were recorded as having received MTX at any time point. […]
The response at 6 months after starting MTX treatment in the group of RA patients (n=38) in the replication model was 45% (n=17), with an average MTX dosage of 19 mg weekly (range 5-25 mg weekly). […] The calculated simple scores in the replication group of RA patients ranged from 1 to 9. […]

[1] = system: patients with recent onset RA; assay: MTX monotherapy efficacy in recent-onset RA patients (BeSt study subcohort), DAS response at 6 months; format: in vivo, human
Source text: The 205 patients enrolled in this study comprised a subcohort of the 508 patients who participated in the BeSt study. (5) The BeSt study is a randomized, multicenter, single-blinded, clinical study comparing the clinical efficacy of four different treatment strategies in recent onset RA including sequential monotherapy (n=126 starting with MTX), step up to combination therapy of MTX with sulfasalazine (SSZ, n=121 starting with MTX), initial combination therapy with MTX, SSZ and a high tapered dose of prednisolone (n=133), or initial biologic therapy with infliximab plus MTX (n=128). Inclusion criteria for patients in the study comprise the American College of Rheumatology (ACR) 1987 criteria for RA (23), an age ≧18 years, and a disease duration of <2 years. Patients were also required to have active RA, defined as ≧6 swollen joints (out of 66) and ≧6 tender joints (out of 68) and either an erythrocyte sedimentation rate (ESR) ≧28 mm/hour or a score of ≧20 mm on 100 mm visual analogue scale (VAS) for patient's assessment of global health (0=best, 100=worst). […]
Patients allocated initial monotherapy with MTX with available DNA samples (n=205) were included in the current analysis. […] A research nurse who was blinded to the allocated treatment group assessed the DAS every 3 months. […]

SMILES: CN(Cc1cnc2nc(N)nc(N)c2n1)c1ccc(C(=O)N[C@@H](CCC(=O)O)C(=O)O)cc1 [MTX, Methotrexate]
- response at 6 months after starting MTX treatment (RA patients): 45%
- responders (DAS of ≦2.4, good clinical response) ([1]; at 6 months of treatment with MTX, oral MTX 7.5 mg weekly increasing to 15 mg, stepwise to 25 mg weekly, with folic acid 1 mg daily, 186 patients evaluable (n=87 responders)): 47 % of patients
- patients who discontinued MTX permanently after experiencing ADEs ([1]; of the 205 patients, within first 6 months): 10 patients
